Key:
LgBiT-eIF4E cells = test: CellTiter-Glo cell viability assay; type: cell-based, human; conditions: 6-hour treatment, at the concentrations tested
[1] = target: eIF4E binding to m^7GTP RNA substrate (Homo sapiens, UniProt P06730); test: cell-based; conditions: 6-hour treatment
His10-eIF4E = His10-eIF4E (human, UniProt P06730 1-217); test: FP competition
[2] = IC50 in CRISPR RiPCA, read at 24 hours
[3] = IC50 values as 95% confidence intervals, CRISPR RiPCA

Chain of eIF4E binding to m^7GTP RNA substrate (P06730 whole entry): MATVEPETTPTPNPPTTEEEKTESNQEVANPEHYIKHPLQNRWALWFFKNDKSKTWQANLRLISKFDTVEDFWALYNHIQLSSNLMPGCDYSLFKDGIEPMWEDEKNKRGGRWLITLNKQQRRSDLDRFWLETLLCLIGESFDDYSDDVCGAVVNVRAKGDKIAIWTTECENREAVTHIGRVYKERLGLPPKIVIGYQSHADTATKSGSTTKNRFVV
Chain of His10-eIF4E (P06730 whole entry): as above

Molecule | cell viability / cell death (LgBiT-eIF4E cells) | IC50 [1, 2] [nM] | IC50 [1, 3] [nM] | binding result (His10-eIF4E)
CO[C@H]1C[C@@H]2CC[C@@H](C)[C@@](O)(O2)C(=O)C(=O)N2CCCC[C@H]2C(=O)O[C@H]([C@H](C)C[C@@H]2CC[C@@H](O)[C@H](OC)C2)CC(=O)[C@H](C)/C=C(\C)[C@@H](O)[C@@H](OC)C(=O)[C@H](C)C[C@H](C)/C=C/C=C/C=C/1C [rapamycin] | Absence of viability defects | 4700 | 1900 to 11000 | 
O=C(O)C(Cc1ccccc1[N+](=O)[O-])=NNc1nc(-c2ccc(Cl)c(Cl)c2)cs1 (mixture of isomers) [4EGI-1] | Absence of viability defects |  |  | 
Cc1cc(-c2cc(Cl)ccc2OCCn2c(C)nc3cc(C(F)(F)F)cc(C#N)c3c2=O)c2scc(C(=O)O)c2n1 [compound 2] |  | 124 | 91 to 171 | 
GCUUCAAGAU (ssRNA, no cap; 3' C6 amine) [G RNA (uncapped)] |  |  |  | no binding

From publication PMC12262620 (bioRxiv, 2025)
